One molecule from patent publication US20090111781A1, “Use of Cymipristone Type Compounds in Aids Treatment” (SHANGHAI THREE-ALLIANCE BIOTECHNOLOGIES CO., LTD., priority 2005, published 2009) can be followed below.

In brackets after ≈: the same amount, converted by molar mass.

Data set [1] has as its target T1, human glucocorticoid receptor (GR) (Homo sapiens, UniProt P04150).
T1 sequence (P04150 1-777): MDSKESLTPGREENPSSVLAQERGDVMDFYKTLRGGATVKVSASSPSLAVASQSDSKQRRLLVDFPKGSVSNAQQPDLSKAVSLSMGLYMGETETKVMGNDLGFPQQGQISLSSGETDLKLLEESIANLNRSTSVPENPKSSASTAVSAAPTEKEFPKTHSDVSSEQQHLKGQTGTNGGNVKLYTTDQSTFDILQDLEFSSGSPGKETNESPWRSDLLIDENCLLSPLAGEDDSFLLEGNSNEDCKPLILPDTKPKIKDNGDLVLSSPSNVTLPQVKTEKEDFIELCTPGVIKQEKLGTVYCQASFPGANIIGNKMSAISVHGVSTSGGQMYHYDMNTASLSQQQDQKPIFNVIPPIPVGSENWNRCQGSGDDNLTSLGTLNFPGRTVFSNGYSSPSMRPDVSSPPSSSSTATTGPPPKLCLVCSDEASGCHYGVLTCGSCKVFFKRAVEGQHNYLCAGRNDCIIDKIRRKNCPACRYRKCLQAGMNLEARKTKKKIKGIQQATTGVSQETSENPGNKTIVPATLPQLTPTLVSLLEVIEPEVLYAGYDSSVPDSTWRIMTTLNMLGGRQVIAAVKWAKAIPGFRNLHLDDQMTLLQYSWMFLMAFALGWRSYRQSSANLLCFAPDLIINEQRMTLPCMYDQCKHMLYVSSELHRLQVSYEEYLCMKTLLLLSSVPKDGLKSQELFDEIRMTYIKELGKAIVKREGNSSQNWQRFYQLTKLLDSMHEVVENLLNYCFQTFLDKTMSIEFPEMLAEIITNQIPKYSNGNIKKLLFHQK
Description: Binding activity on human nuclear receptor GR ([3H]-dexamethasone competition). To be noted: mean ± SD, n = 4.
Description: Buffer solution is composed of 25 mM NaPO4, 20 mM NaMoO4, 10 mM KF and 10% glycerol (pH=7.3) and stored under 4° C. Stock solution is prepared with CHAPS and DTT and stored under −20° C. […] Add 2.5 μl/hole into 96-pore plate. Take out appropriate amount of buffer solution reserve into solution to make the final concentration of CHAPS and DDT to become 0.25 mM and 2 mM respectively. Add protease inhibitors (aprotinin and leupeptin) to make its final concentration to become 1 μg/μl, and place in an ice bath. […] On the next day, add 25 μl of hydroxyapatite suspension into each pore and mix with shaking. After incubating for 10 min, separate by centrifuge for 3 min at 2500 rpm. The precipitate is washed with 100 μl of buffer solution and separated by centrifuge twice. Add 150 μl of scintillation solution (from Perkin Elmer) into each pore, mix with shaking and count by MicroBeta counter.

The target in data set [2] is T2, mineralocorticoid receptor (MR) (Homo sapiens, UniProt P08235).
T2 sequence (P08235 1-984): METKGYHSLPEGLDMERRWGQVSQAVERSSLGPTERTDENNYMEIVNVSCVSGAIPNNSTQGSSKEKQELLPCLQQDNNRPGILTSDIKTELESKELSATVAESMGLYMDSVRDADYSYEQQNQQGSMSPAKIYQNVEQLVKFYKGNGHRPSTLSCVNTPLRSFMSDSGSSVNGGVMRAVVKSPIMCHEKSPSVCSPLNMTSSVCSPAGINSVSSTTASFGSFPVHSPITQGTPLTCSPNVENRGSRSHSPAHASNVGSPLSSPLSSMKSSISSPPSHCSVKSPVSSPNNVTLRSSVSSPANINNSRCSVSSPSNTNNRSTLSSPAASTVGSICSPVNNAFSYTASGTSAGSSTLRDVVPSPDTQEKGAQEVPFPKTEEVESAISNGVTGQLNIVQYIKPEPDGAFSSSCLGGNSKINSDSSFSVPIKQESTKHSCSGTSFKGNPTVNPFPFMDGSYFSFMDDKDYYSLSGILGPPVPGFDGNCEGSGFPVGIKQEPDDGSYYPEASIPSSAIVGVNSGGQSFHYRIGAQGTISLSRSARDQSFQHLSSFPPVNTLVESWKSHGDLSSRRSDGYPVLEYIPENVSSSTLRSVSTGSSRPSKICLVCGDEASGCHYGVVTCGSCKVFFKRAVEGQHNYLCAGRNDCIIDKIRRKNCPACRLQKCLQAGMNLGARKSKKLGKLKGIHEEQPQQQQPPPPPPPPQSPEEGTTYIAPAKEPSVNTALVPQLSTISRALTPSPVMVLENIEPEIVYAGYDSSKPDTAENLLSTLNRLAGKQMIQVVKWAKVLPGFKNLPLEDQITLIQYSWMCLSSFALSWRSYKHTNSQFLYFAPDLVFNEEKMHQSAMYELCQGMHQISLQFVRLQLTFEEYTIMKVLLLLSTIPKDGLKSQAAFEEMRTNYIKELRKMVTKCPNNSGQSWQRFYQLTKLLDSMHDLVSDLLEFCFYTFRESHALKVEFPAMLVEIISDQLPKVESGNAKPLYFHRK
Description: Binding activity on human nuclear receptor MR. To be noted: n = 4. How it is done:
Buffer solution is composed of 25 mM NaPO4, 20 mM NaMoO4, 10 mM KF and 10% glycerol (pH=7.3) and stored under 4° C. Stock solution is prepared with CHAPS and DTT and stored under −20° C. […] Add 2.5 μl/hole into 96-pore plate. Take out appropriate amount of buffer solution reserve into solution to make the final concentration of CHAPS and DDT to become 0.25 mM and 2 mM respectively. Add protease inhibitors (aprotinin and leupeptin) to make its final concentration to become 1 μg/μl, and place in an ice bath. After adding human nuclear receptor GR (1:8), PR (1:100), ER (1:2000), AR (1:200) and MR (1:40) into the reaction system respectively, adequately mix suitable quantity of [^3H]-dexamethasone, [^3H]-progesterone, [^3H]-estradiol and [^3H]-DHT (from Amersham), rapidly add into 96-pore plate (100 μl/pore) and incubate overnight under 4° C. On the next day, add 25 μl of hydroxyapatite suspension into each pore and mix with shaking. After incubating for 10 min, separate by centrifuge for 3 min at 2500 rpm. The precipitate is washed with 100 μl of buffer solution and separated by centrifuge twice. Add 150 μl of scintillation solution (from Perkin Elmer) into each pore, mix with shaking and count by MicroBeta counter.

A short description of data set [3]: MTT toxicity on PBMC infected by HIV-1 AZT-sensitive strain 018a. The following applies: human, PBMC, 018a. How it is done: Collect cells with curette, infect cells with 10^−2 AZT sensitive (018a) or AZT resistant (018c) virus strain liquid, and adsorb for 2 hours, Wash off unabsorbed virus with 1640 culture medium without serum, prepare cells infected by virus to 1×10^6/ml with culture solution, and inoculate on 96-pore culture plate, 100 μl/pore. […] Set cell control group and virus infected cell control group. Incubate under 37° C. and 5% CO2. On the fourth day (96 hours), pipette out the supernatant liquid and store under −20° C. for determination of HIV-1 P24 antigen titer and calculation of drug inhibitory action. Add MTT staining to cells for determination of cytotoxicity. Determination of cytotoxicity by MTT staining: Add 10 μl of 5 mg/ml MTT stain into each pore, continue to incubate under 37° C., 5% CO2 and saturated humidity for 4 hours. […] Determine the HIV-1 P24 antigen titer according to the operation procedure provided by the HIV-1 P24 antigen reagent kit. Compare the drug-added group with virus control group. […] Calculation method of 50% toxic concentration (CC50), 50% effective concentration (EC50) and selection index (SI): […]

Usually IC50 stands for the midpoint of a concentration-inhibition curve. A higher IC50 goes with weaker potency in that assay. As usually defined, the CC50 is the concentration giving 50% cytotoxicity.

Turning to `CC#C[C@]1(O)CC[C@H]2[C@@H]3CCC4=CC(=O)CCC4=C3[C@@H](c3ccc(N(C)C4CCCCC4)cc3)C[C@@]21C` [Cymipristone, 11β-[4-(N-methyl-N-cyclohexylamino)phenyl]-17α-(1-propynyl)-17β-hydroxyl-4,9-estradiene-3-one], the half-maximal inhibitory concentration (IC50) was 0.45 ± 0.069 nM in data set [1] and more than 2000 nM in data set [2]. Also, the CC50 at 96 h in data set [3] (50% toxic concentration CC50, Average) is 130 µg/mL (≈ 261 µM); in data set [3] (50% toxic concentration CC50, Experiment 1), 104 µg/mL (≈ 208 µM); in data set [3] (50% toxic concentration CC50, Experiment 2), 156 µg/mL (≈ 314 µM).
